Experimental data taken from patent publication US20130331389A1, “Methods and Compositions for Cardiomyocyte Replenishment by Endogenous and Progenitor Stem Cells” (NATIONAL CHENG KUNG UNIVERSITY, priority 2012, published 2013).

Legend:
TGF-β1 = assay: Quantitative RT-PCR of TGF-β1 in infarcted region of MI heart; assay type: in vivo, mouse; conditions: day 3 and day 7 after injury
Method: (§1) To induce Cre recombination to achieve GFP labeling of cardiomyocytes, tamoxifen (Sigma) was dissolved in sunflower oil (Sigma) at a concentration of 5 mg/ml. The tamoxifen solution was injected intraperitoneally into M/Z mice daily at a dosage of 40 μg per 1 g body weight for 14 days, and the same dosage was injected twice daily for short-term labeling using methods known in the art (Laugwitz, K.-L. et al. Nature 433, 647-653 (2005)). All experimental conditions were optimized prior to the PGE2, indomethacin and TGF-β Type I Receptor Kinase Inhibitor II (ALK5 Inhibitor II, ALK5i, Merck) treatments. The mice treated with PGE2 or PGI2 (Vegiopoulos, A. et al. Science 328, 1158-1161 (2010)) (both from Sigma) were injected intraperitoneally with 3.33 ng of drug per 1 g of body weight dissolved in absolute ethanol twice daily. […]
(§2) The total RNA isolated from the ischemic region or remote area of MI hearts was reverse transcribed using the SuperScript III (Invitrogen) system according to the manufacturer's protocol. For quantitative PCR, the SYBR Green reagent (Maestrogen) was used according to the manufacturer's protocol. The analysis of relative gene expression was performed using the 2̂[−delta delta Ct] method and sequence-specific primers designed for semi-quantitative PCR and real-time RT-PCR (FIG. 11).

Sca-1 = assay: Quantitative RT-PCR of Sca-1 in infarct zone of MI heart; assay type: in vivo, mouse; conditions: day 3 post-MI
Method: (§3) To induce Cre recombination to achieve GFP labeling of cardiomyocytes, tamoxifen (Sigma) was dissolved in sunflower oil (Sigma) at a concentration of 5 mg/ml. The tamoxifen solution was injected intraperitoneally into M/Z mice daily at a dosage of 40 μg per 1 g body weight for 14 days, and the same dosage was injected twice daily for short-term labeling using methods known in the art (Laugwitz, K.-L. et al. Nature 433, 647-653 (2005)). All experimental conditions were optimized prior to the PGE2, indomethacin and TGF-β Type I Receptor Kinase Inhibitor II (ALK5 Inhibitor II, ALK5i, Merck) treatments. The mice treated with PGE2 or PGI2 (Vegiopoulos, A. et al. Science 328, 1158-1161 (2010)) (both from Sigma) were injected intraperitoneally with 3.33 ng of drug per 1 g of body weight dissolved in absolute ethanol twice daily. For the indomethacin treatment, mice were fed with water containing indomethacin (Sigma, 15 μg/ml) for different periods of time. The indomethacin-containing water was changed every 3 days. The mice subjected to the celecoxib (Lyons, T. R. et al. Nat. Med. 17, 1109-1115 (2011)) (Sigma) treatment were injected intraperitoneally with 5 μg of drug per 1 g of body weight daily. For ALK5i treatment, aged mice were injected intraperitoneally once per day with 1 μg of drug per 1 g of body weight one day before surgery and continuously until day 10 post-MI. Celecoxib and ALK5i were dissolved in ethanol and DMSO, respectively.
as §2

B220 = assay: Quantitative RT-PCR of B cell marker B220 in infarct region; assay type: in vivo, mouse; conditions: both young and old mice; day 3 post-infarction
Method: as §1, §2

Sca-1+ cells = assay: Flow cytometry of Sca-1+/GFP+ cardiac small cells on day 3 post-MI; assay type: in vivo, mouse; conditions: tamoxifen 80 μg/g per day for 3 days, P<0.001
Method: as §3, with “Celecoxib and ALK5i were dissolved in ethanol and DMSO, respectively.” left out

[1] = test system: cardiomyocyte-depleted small cells; assay: Culture of cardiomyocyte-depleted small cells, cTnT immunocytochemistry; assay type: cell-based, mouse; conditions: PGE2 10 μm for three days
Method: Cardiomyocyte-depleted cardiac small cells were prepared as previously described with some modifications (Oh, H. et al. Proc. Natl. Acad. Sci. USA 100, 12313-12318 (2003); and Pfister, O. et al. Circ. Res. 97, 52-61 (2005)). Specifically, instead of using a 70 μm and then a 45 μm strainer to isolate the cardiomyocyte-depleted cardiac small cells, the cells were filtered through a 45 μm strainer directly after enzyme digestion. The minced heart tissue was digested with 0.1% collagenase B (Roche Molecular Biochemicals), 2.4 U/ml dispase II (Roche Molecular Biochemicals) and 2.5 mmol/L CaCl2 at 37° C. for 30 minutes and then filtered through a 45-μm filter. For isolation of cardiac Sca-1^+ cells, the cardiac small cells were incubated with the Phycoerythrin (PE)-conjugated Sca-1^+ antibodies (BD Bioscience) at 4° C. for 30 minutes. The PE-labeled Sca-1^+ cells were then sorted by the magnetic particles against PE (BD Biosciences). Incubation of cardiomyocyte-depleted small cells with anti-Sca-1-PE antibody and magnetic cell sorting were omitted for isolation of Sca-1^+ cells from the Sca-1-GFP transgenic mice. After isolation, the cells were fixed in 2% paraformaldehyde for 20 minutes and followed by 1 hour blocking in PBS with 1% BSA. […]

For `CCCCC[C@H](O)/C=C/C1C(O)CC(=O)C1C/C=C\CCCC(=O)O` (stereo partly drawn) [PGE2, (5Z,11α,13E,15S)-7-[3-hydroxy-2-(3-hydroxyoct-1-enyl)-5-oxo-cyclopentyl]hept-5-enoic acid], the “expression of TGF-β1” value (TGF-β1; aged mice) was “decline”, the “expression of TGF-β1” value (TGF-β1; young mice) was “not significantly altered” and the Sca-1 expression (Sca-1; aged animals) was “restored Sca-1 expression to levels similar to those in young mice”. The Sca-1 expression (Sca-1; young mice) was “further increased”, the B220 level (B220) was “reduced” and the “number of Sca-1+/GFP+ cells” value (Sca-1+ cells) was “expanding”. The “mature sarcomeric structure, as determined by the expression of cTnT” value [1] was “seen”.
